Assays:
AR 1.0 cells [1] = test: Drug accumulation assay (tritiated daunorubicin); assay type: cell-based; settings: Mus musculus; daunorubicin 2 μM; 1 hr at 37° C.; read-out: IC50 accumulation
Method: AR 1.0 cells were seeded into 96 well opaque culture plates (Canberra Packard). The assay medium contained a mixture of tritiated Daunorubicin (DNR), a cytotoxic agent, and unlabelled DNR (0.3 μCi/ml; 2 μM). Compounds of formula I were serially diluted in assay medium over a range of concentrations from 5 nM to 100 μM. The cells were incubated at 37° C. for 1 hr before washing and determination of cell associated radioactivity. Results were expressed as % maximum accumulation where 100% accumulation is that observed in the presence of the known RMA verapamil at 100 μM. Where possible an IC50 was determined.

AR 1.0 cells [2] = test: Compound toxicity (proliferation, sulphorhodamine B); assay type: cell-based; settings: Mus musculus, 96 h; compound alone; AR 1.0 cells; four day incubation; read-out: Compound toxicity (IC50)
AR 1.0 cells [3] = test: Potentiation of doxorubicin toxicity (fixed doxorubicin 0.86 μM, proliferation, sulphorhodamine B); assay type: cell-based, mouse; settings: with doxorubicin 0.86 μM; four day incubation; 5760 min; read-out: Toxicity with cytotoxic agent (IC50)
Excerpt: Compounds of formula (I) were examined for their ability to potentiate the toxicity of doxorubicin in AR 1.0 cells.

AR 1.0 cells [4] = test: Potentiation index for doxorubicin (doxorubicin titration with fixed concentration of compound); assay type: cell-based, mouse
Method: The EMT6 mouse mammary carcinoma cell line and the MDR resistant sublime AR 1.0 were cultured in RPMI 1640 medium containing 10% foetal calf serum and 2 mM glutamine at 37° C. in 5% CO2. Cells were passaged between 1 in 200 and 1 in 2000 in the case of the parental cell line and between 1 in 20 and 1 in 200 in the case of the MDR resistant subline, after trypsinisation (0.25% trypsin, 0.2 gl^-1, EDTA).
Cells were cultured for four days with a titration of doxorubicin (0.01 nm-50 μM) in the presence of a fixed concentration of each compound. Proliferation was quantified as described by Skehan et. al, loc cit. The IC50 (concentration required to reduce proliferation to 50% of the untreated controls) for doxorubicin alone and with each compound were derived and used to calculate the potentiation index (PI): [formula]

MDR cells = settings: in vitro and in vivo; Cancer Res., 41, 1967-1972 (1981); cited from earlier work
[5] = RMA at 1 μM, doxorubicin, four days

Row | IC50 (AR 1.0 cells [1]) [µM] | SMILES | IC50 (AR 1.0 cells [2]) [µM] | IC50 (AR 1.0 cells [3]) [µM] | Potentiation index (AR 1.0 cells [4]; [5]) | Potentiation index (AR 1.0 cells [4]; measured at 0.01 μM) | Potentiation index (AR 1.0 cells [4]; measured at 0.03 μM) | Potentiation index (AR 1.0 cells [4]; measured at 0.1 μM) | Potentiation index (AR 1.0 cells [4]; measured at 0.3 μM) | sensitisation of MDR cells to Vinca alkaloids (MDR cells)
1 | 1 | COc1cc2c(cc1OC)CN(CCc1ccc(COc3ccc(/C=c4\[nH]c(=O)/c(=C/c5ccccc5)n(C)c4=O)cc3)cc1)CC2 [Compound 9176, (3Z,6Z)-6-Benzylidene-3-(4-(4-(2-(6,7-dimethoxy-1,2,3,4-tetrahydro-2-isoquinolyl)ethyl)benzyloxy)benzylidene)-1-methyl-2,5-piperazinedione] | 10 | 0.2 | 300.0 |  |  |  |  | 
2 | 1.75 | COc1cc2c(cc1OC)CN(CCc1ccc(COc3cccc(/C=c4\[nH]c(=O)/c(=C/c5ccccc5)n(C)c4=O)c3)cc1)CC2 [Compound 9177, (3Z,6Z)-6-Benzylidene-3-(3-(4-(2-(6,7-dimethoxy-1,2,3,4-tetrahydro-2-isoquinolyl)ethyl)benzyloxy)benzylidene)-1-methyl-2,5-piperazinedione] | 15 | 0.5 | 75.0 |  |  |  |  | 
3 | 0.35 | COc1cc2c(cc1OC)CN(CCc1ccc(C(=O)Nc3ccc(/C=c4\[nH]c(=O)/c(=C/c5ccccc5)n(C)c4=O)cc3)cc1)CC2 [Compound 9190, N-(4-((3Z,6Z)-6-Benzylidene-1-methyl-2,5-dioxo-3-piperazinylidene)methylphenyl)-4-(2-(6,7-dimethoxy-1,2,3,4-tetrahydro-2-isoquinolyl)ethyl)benzamide] | 15 | 0.05 |  | 1.4 | 3.3 | 10.0 | 75.0 | 
4 |  | COc1ccc(CCN(C)CCCC(C#N)(c2ccc(OC)c(OC)c2)C(C)C)cc1OC (stereo not shown) [Verapamil] |  |  |  |  |  |  |  | shown to sensitise MDR cells to Vinca alkaloids in vitro and in vivo

— patent US5935955A, “Pharmaceutical piperazine compounds” (Xenova Limited, priority 1994, dated 1999)
